Here are results for two compounds from paper PMC3527569, “Anti-Inflammatory and Vasoprotective Activity of a Retroviral-Derived Peptide, Homologous to Human Endogenous Retroviruses: Endothelial Cell Effects” (PLoS ONE, 2012).

The test system of one test is TF. Nature of the test: Monocyte-associated tissue factor (TF) ELISA. The class given is cell-based. To be noted: human PBMC cultured 18-24 h with LPS; cell lysate, IMMUBIND Tissue Factor ELISA; IC50 estimated from graph. The procedure:
Tissue Factor (TF): Monocyte-associated TF was quantitated in the following manner. PBMC were cultured in 48-well tissue culture plates as described below for PAF and LTB4 assays. At the end of the culture period (18-24 h) the supernatants were removed and stored frozen for cytokine assays. The wells of the plates were washed once with PBS and to each well was added 100 µL of Triton X-100 (10% [v/v] in H2O; Sigma, St. Louis, MO). The plates were placed on an orbital shaker for 12-18 h at 4°C and a speed of ~ 125 rpm. To each well was added 900 µL of sample buffer (10 mM PBS, pH 7.4, with 1% [w/v] BSA). The contents of each well were mixed well and removed for quantitation of TF using an IMMUBIND® Tissue Factor ELISA kit (American Diagnostica; Stamford, CT) according to the manufacturer’s instructions. Samples were diluted 1:10 in sample buffer prior to being assayed.

Another test has as its system Adhesion. Nature of the test: Monocyte adhesion to endothelial cells (HUVEC). The class given is cell-based, human. To be noted: calcein-labelled PBMC on HUVEC, TNF-α stimulated; peptide 10 nM-100 µM. The procedure: Monocyte Adhesion to Endothelial Cells: To each well of a 96-well tissue culture plate was added 100 µL of HUVEC at 2 x 10^4 cells/ml. The plates were then incubated 48 h at 37°C and 5% CO2. PBMC, prepared as above, were washed once in serum-free RPMI-1640 medium. Calcein-AM (Sigma; St. Louis, MO) was added to a final concentration of 10 µg/ml, the cells incubated 30 min at 37°C, and then washed once with serum-free RPMI-1640. The cells were then washed an additional time with Complete Medium and resuspended to a concentration of 3 x 10^6/ml in Complete Medium. For each concentration of compound to be tested, 200 µL of labeled PBMC was incubated with 200 µL of test compound (2X desired final concentration) in polypropylene tubes. Similarly, for each concentration of compound to be tested, 50 µL of medium was removed from a well of the plated HUVEC and 50 µL of medium containing the test compound (2X desired final concentration) was added. Both tubes and plates were incubated 1 h at 37°C in 5% CO2. All peptides were tested at log10 concentrations of 10 nM to 100 µM. […] The plate was then read on a fluorescent spectrophotometer with filter settings of λ = 485exc/530emi. […] The plate was blotted to remove any media and read again on the fluorescent spectrophotometer. Percent of Maximum Adhesion (% Max. Adh.) was calculated as: […]

The test system of the next test is human blood monocytes. Nature of the test: [125I]-MN20054 binding/uptake by human blood monocytes. To be noted: 100-fold molar excess unlabeled peptide, 60 min, 37°C, PBS 0.5% BSA pH 7.5, triplicate, gamma counting (Figure 6A). As for the experimental part: (Perkin Elmer; Boston, MA) using the chloramine-T method. Human blood monocytes (purified by adherence to plastic; 10^6/0.2 ml in PBS with 0.5% BSA, pH 7.5 in 12×75 mm polypropylene tubes) were incubated in triplicate at 37°C for 60 min with 40 pmol [^125I]-MN20054 (∼20 Ci/mmol) in the presence or absence of a 100-fold molar excess of unlabeled peptide. Tubes were shaken gently during the incubation. The contents of each tube were layered onto a layer of 0.8 ml of 10% sucrose in polypropylene Eppendorf tubes and the tubes centrifuged for 5 min at 8,000×g to separate cell-associated from free ligand. The tubes were then snap-frozen in a dry-ice/acetone bath and the bottom of the tube containing the cell pellet cut off and then counted in a gamma-scintillation spectrophotometer. In studies to determine how much of the uptake was due to endocytosis, binding/uptake was performed as described above with the exception that half of the monocytes were pretreated for 30 min at 37°C with cytochalasin B (10 µg/ml; Sigma; St. Louis, MO).

Test [1] deals with nitrate in HUVEC supernatants. Nature of the test: NO release (nitrate as nitrite) from HUVEC. The class given is cell-based, human. To be noted: 50 µM peptide. As for the experimental part:
HUVEC were grown to 80–90% confluence in 12-well tissue culture plates using defined media provided by Cambrex and supplemented with 10% FBS. Triplicate wells were incubated with either media alone or media containing 50 µM of the indicated peptide. Supernatant samples were removed from each well at 6 h and 24 h post peptide addition and assayed for NO release as measured by the presence of nitrate (converted to nitrite) using a kit supplied by Oxford Biomedical Research (Rochester Hill, MI) according to the manufacturer's instructions.

A further test concerns GM-CSF. Description: LPS-induced GM-CSF release by human PBMC (sandwich ELISA). Format: cell-based. To be noted: 18-24 h, peptide 10 nM-100 µM in triplicate, IC50 estimated from graph. The procedure: (§1) Cytokine Assays: One-hundred µL of PBMC (2 x 10^6/ml in Complete Medium) were added to each well of a flat-bottom, 96-well tissue culture plate. To each well was then added 50 µL of media or peptide (4X desired final concentration; in Complete Medium) and 50 µL of lipopolysaccharide (LPS; S. typhosa; Sigma, St. Louis, MO; 400 ng/ml Complete Medium). Each peptide was tested in triplicate at 5 log10 concentrations ranging from 100 µM to 10 nM. Plates were incubate 18-24 h at 37°C in 5% humidified CO2. Plates were then centrifuged and 100 µL of supernatant removed from each well and stored frozen at -80°C until assayed. Cytokines (TNF-α, IL-1β, IL-6, GM-CSF) were measured by sandwich ELISA assays (R & D Systems; Minneapolis, MN) using the manufacturer’s instructions. The released cytokine concentration was determined from a standard curve using recombinant cytokine provided with each kit.

In another test the test system is IL-6. Description: LPS-induced IL-6 release by human PBMC (sandwich ELISA). The class given is cell-based. To be noted: 18-24 h, peptide 10 nM-100 µM in triplicate, IC50 estimated from graph. As for the experimental part: as §1
A further test relates to Platelet Aggregation. Nature of the test: Platelet aggregation. The class given is cell-based, human. The note with it: for pIC50: human blood cells.
The subject of another test is systolic blood pressure. Description: SHR rat hypertension model (tail cuff). The class given is in vivo. As for the experimental part:
As part of a general pharmacological screen, MN10021 was evaluated in a rat model of hypertension by MDS-PanLabs (Bothell, WA). […] Blood pressure measurements were made by tail cuff at 1, 2, and 4 h post administration of test compounds. A decrease of ≥10% of the baseline systolic blood pressure is considered significant in this assay.

Where [2] appears, read: 100 mg/kg orally (gavage), groups of 3 SHR rats, tail cuff, vs 0 h value.

The term pIC50 denotes −log10 of the IC50, conventionally taken in molar units.

pIC50: −log10 of the molar value. Where a SMILES comes first, the peptide text is derived from it. Bridges are numbered along the chain shown (N, C = ends). Roman numbers before positions name the chains, in order.

As to “H-LGGEKLFLLDGRNQLC-OH (disulfide (positions not given here)) [MN20050]”, the pIC50 with TF, in the test on Adhesion, in the test on GM-CSF, with IL-6 and in the test with Platelet Aggregation was under 4.00 throughout. Moreover, the “inhibition of binding or uptake of [125I]-MN20054 by monocytes” value with human blood monocytes is reported as under 10%. For the same compound, in test [1] (6 h and ON incubations), the “nitrate release, percent of MN10021” value was at most 25%.

Take `CC(C)C[C@H](NC(=O)CNC(=O)CNC(=O)[C@H](CCC(=O)O)NC(=O)[C@H](CCCCN)NC(=O)[C@H](CC(C)C)NC(=O)[C@H](Cc1ccccc1)NC(=O)[C@H](CC(C)C)NC(=O)[C@H](CC(C)C)NC(=O)[C@H](CC(=O)O)NC(=O)[C@H](CC(C)C)NC(=O)CNC(=O)[C@H](CCCNC(=N)N)NC(=O)[C@H](CCCNC(=N)N)NC(=O)[C@H](CC(N)=O)NC(=O)[C@H](CCC(N)=O)NC(=O)[C@@H](N)CC(C)C)C(=O)N[C@@H](CSSC[C@H](NC(=O)[C@H](CC(C)C)NC(=O)CNC(=O)CNC(=O)[C@H](CCC(=O)O)NC(=O)[C@H](CCCCN)NC(=O)[C@H](CC(C)C)NC(=O)[C@H](Cc1ccccc1)NC(=O)[C@H](CC(C)C)NC(=O)[C@H](CC(C)C)NC(=O)[C@H](CC(=O)O)NC(=O)[C@H](CC(C)C)NC(=O)CNC(=O)[C@H](CCCNC(=N)N)NC(=O)[C@H](CCCNC(=N)N)NC(=O)[C@H](CC(N)=O)NC(=O)[C@H](CCC(N)=O)NC(=O)[C@@H](N)CC(C)C)C(=O)O)C(=O)O` [MN10021] (I: H-LQNRRGLDLLFLKEGGLC-OH / II: H-LQNRRGLDLLFLKEGGLC-OH; disulfide I:18-II:18): the negative-log IC50 (pIC50) is 4.90 in the test with TF; under 4.00 in the test on Adhesion; 5.10 with GM-CSF; under 4.00 in the test on IL-6; 5.30 in the test on Platelet Aggregation. The “decreases in blood pressure at the three time points (1, 2, 4 h)” value with systolic blood pressure (30 mg/kg orally, data not shown) was 3–4%. Also, the “decrease in blood pressure at 1 h” value with systolic blood pressure (setting [2]) was determined as 12%. Further, in the test with systolic blood pressure (setting [2]), the “decrease in blood pressure at 2 h” value was found to be 15%. Moreover, the “decrease in blood pressure at 4 h” value in the test with systolic blood pressure (setting [2]) stood at 13%. Moreover, the “lowering of blood pressure within 1 h” value in the test with systolic blood pressure (orally-administered (abstract)) is 10–15%. In the test on human blood monocytes, the “inhibition of binding or uptake of [125I]-MN20054 by monocytes” value is reported as about 65%. Also, in test [1] (6 h or ON), the “nitrate release (as measured by nitrite assay) from HUVEC” value is “induced nitrate release”. In addition, the “effect on ADP- and epinephrine-induced human platelet aggregation” value in the test on Platelet Aggregation (in vitro, data not shown) is “inhibit”.
